Test results: patent publication US20250296953A1, “3,4-THIAZOLO-STEROIDS AND METHODS OF MAKING AND USING THE SAME” (Arkansas State University - Jonesboro, priority 2018, published 2025)
Where two headings read alike, the source gives them in different places.

Tested on: 60 different human tumor cell lines
Details: for GI50 / TGI: five dose
[1] = A549/ATCC (Non-small Cell Lung Cancer)
[2] = HOP-62 (Non-small Cell Lung Cancer)
[3] = HOP-92 (Non-small Cell Lung Cancer)
[4] = MDA-MB-231/ATCC (Breast Cancer)
[5] = NCI-H23 (Non-small Cell Lung Cancer)
[6] = NCI-H322M (Non-small Cell Lung Cancer)
[7] = NCI-H460 (Non-small Cell Lung Cancer)
[8] = NCI-H522 (Non-small Cell Lung Cancer)

(1S,2R,13R,14S,18S)-7-(2,4-dimethylanilino)-2,18-dimethyl-6-thia-8-azapentacyclo[11.7.0.02,10.05,9.014,18]icosa-5(9),7,10-trien-17-one [IIa.14]
CC50: > 100000 nM
GI50 (786-0 (Renal Cancer)): 1620 nM
TGI (786-0 (Renal Cancer)): 3.07E−6
GI50 (A498 (Renal Cancer)): 2540 nM
GI50 [1]: 3500 nM
TGI [1]: >1.00E−4
GI50 (ACHN (Renal Cancer)): 2080 nM
TGI (ACHN (Renal Cancer)): 4.53E−6
GI50 (BT-549 (Breast Cancer)): 1490 nM
TGI (BT-549 (Breast Cancer)): 2.94E−6
GI50 (CAKI-1 (Renal Cancer)): 2830 nM
TGI (CAKI-1 (Renal Cancer)): >1.00E−4
GI50 (CCRF-CEM (Leukemia)): 2450 nM
TGI (CCRF-CEM (Leukemia)): >1.00E−4
GI50 (COLO 205 (Colon Cancer)): 2500 nM
TGI (COLO 205 (Colon Cancer)): 6.54E−6
GI50 (DU-145 (Prostate Cancer)): 2040 nM
TGI (DU-145 (Prostate Cancer)): 5.18E−6
GI50 (EKVX (Non-small Cell Lung Cancer)): 2130 nM
GI50 (HCC-2998 (Colon Cancer)): 1900 nM
TGI (HCC-2998 (Colon Cancer)): 3.74E−6
GI50 (HCT-15 (Colon Cancer)): 2680 nM
GI50 (HCT-116 (Colon Cancer)): 1490 nM
TGI (HCT-116 (Colon Cancer)): 2.85E−6
GI50 (HL-60(TB) (Leukemia)): 2470 nM
TGI (HL-60(TB) (Leukemia)): 6.03E−6
GI50 [2]: 2430 nM
TGI [2]: 6.92E−6
GI50 [3]: 1720 nM
TGI [3]: 3.86E−6
GI50 (HS 578T (Breast Cancer)): 3750 nM
TGI (HS 578T (Breast Cancer)): >1.00E−4
GI50 (HT29 (Colon Cancer)): 2550 nM
TGI (HT29 (Colon Cancer)): 7.04E−6
GI50 (IGROV1 (Ovarian Cancer)): 2110 nM
TGI (IGROV1 (Ovarian Cancer)): 5.14E−6
GI50 (K-562 (Leukemia)): 2860 nM
TGI (K-562 (Leukemia)): >1.00E−4
GI50 (KM12 (Colon Cancer)): 2780 nM
GI50 (LOX IMVI (Melanoma)): 1640 nM
TGI (LOX IMVI (Melanoma)): 3.13E−6
GI50 (M14 (Melanoma)): 1850 nM
TGI (M14 (Melanoma)): 3.79E−6
GI50 (MALME-3M (Melanoma)): 1990 nM
TGI (MALME-3M (Melanoma)): 5.55E−6
GI50 (MCF7 (Breast Cancer)): 2310 nM
TGI (MCF7 (Breast Cancer)): >1.00E−4
GI50 [4]: 2330 nM
TGI [4]: 7.92E−6
GI50 (MDA-MB-435 (Melanoma)): 3020 nM
TGI (MDA-MB-435 (Melanoma)): >1.00E−4
GI50 (MDA-MB-468 (Breast Cancer)): 1930 nM
TGI (MDA-MB-468 (Breast Cancer)): 3.93E−6
GI50 (MOLT-4 (Leukemia)): 2490 nM
TGI (MOLT-4 (Leukemia)): >1.00E−4
GI50 [5]: 2010 nM
TGI [5]: 4.85E−6
GI50 (NCI-H226 (Non-small Cell Lung Cancer)): 2350 nM
GI50 [6]: 4280 nM
TGI [6]: >1.00E−4
GI50 [7]: 2700 nM
TGI [7]: 8.39E−6
GI50 [8]: 1680 nM
TGI [8]: 3.28E−6
GI50 (NCI/ADR-RES (Ovarian Cancer)): 2900 nM
TGI (NCI/ADR-RES (Ovarian Cancer)): >1.00E−4
GI50 (OVCAR-3 (Ovarian Cancer)): 2180 nM
TGI (OVCAR-3 (Ovarian Cancer)): 5.03E−6
GI50 (OVCAR-4 (Ovarian Cancer)): 2830 nM
TGI (OVCAR-4 (Ovarian Cancer)): >1.00E−4
GI50 (OVCAR-5 (Ovarian Cancer)): 2900 nM
TGI (OVCAR-5 (Ovarian Cancer)): >1.00E−4
GI50 (OVCAR-8 (Ovarian Cancer)): 2630 nM
TGI (OVCAR-8 (Ovarian Cancer)): 7.26E−6
GI50 (PC-3 (Prostate Cancer)): 1860 nM
TGI (PC-3 (Prostate Cancer)): 4.53E−6
GI50 (RXF 393 (Renal Cancer)): 1740 nM
TGI (RXF 393 (Renal Cancer)): 3.23E−6
GI50 (SF-268 (CNS Cancer)): 2770 nM
GI50 (SK-MEL-2 (Melanoma)): 2190 nM
TGI (SK-MEL-2 (Melanoma)): 4.74E−6
